# In patent US20190070204A1, “PROLIFERATIVE AGENT FOR FAECALIBACTERIUM” (B FOOD SCIENCE CO., LTD., priority 2016, published 2019):
# How the values were obtained:
# Faecalibacterium = Faecalibacterium proliferative effect in vivo: cell number in feces of infants by real-time PCR; set-up: species or system human (infants); conditions: for mean number of cells of Faecalibacterium (log10) / mean number of cells of Faecalibacterium per g feces: infants, oral, daily 1-3 g; for Significant difference (vs 0 week): Wilcoxon signed rank test; for cell number of Faecalibacterium over study period (in words): 12-week study
# Excerpt: 58 infants from 6 months old to 6 years old were divided into 2 groups of 29 infants and they were designated 1-Kestose Group and Maltose Group. 1-Kestose Group took 1-kestose (purity 98% by mass or more, B Food Science Co., Ltd.) orally and Maltose Group took maltose (purity of 92% by mass or more, “Sunmalt-S” powder, Sanwa Starch Co., Ltd.) orally every day during the study period. The test period was 12 weeks. The daily intake of 1-kestose or maltose was 1 g (estimated intake; 0.121 g/kg body weight/day) for infants under 1 year old, 2 g (estimated intake; 0.169 g/kg body weight/day) for infants from 1 to 3 years old, and 3 g (estimated intake; 0.170 g/kg body weight/day) for infants from 4 to 6 years old. […] The estimated intake mentioned above was calculated based on the age-specific body weight data published in “2010 National growth survey on preschool children of the Ministry of Health, Labour and Welfare”. More specifically, the male and female medians were separately calculated from the minimums and the maximums of the body weight data within the age ranges of the study participants of Example 2 and the means of the medians were calculated. Subsequently, the male and female means of the means of the medians were calculated as estimated body weights. The estimated body weights were 8.26 kg for under 1 year old, 11.85 kg for 1 to 3 years old, and 17.62 kg for 4 to 6 years old. […] The numbers of cells of Faecalibacterium in the recovered feces were quantified by real-time PCR. Specifically, genomic DNA was first extracted from the feces using the reagent for genome extraction “Ultra Clean Soil DNA Isolation Kit” (Mo Bio Laboratories Inc.) and “High Pure PCR Template Preparation Kit” (Roche). […] The standard curve was generated based on the result of real-time PCR performed under the same conditions using genomic DNA extracted in the same way from Faecalibacterium prausnitzii strain ATCC27768 strain cultured in pure culture and counted under a microscope. The mean of cell numbers was calculated for each group.
# [1] = tested on: Faecalibacterium prausnitzii strain ATCC27768; experiment: Faecalibacterium proliferative effect in vitro: culture turbidity with oligosaccharide added; format: cell-based; conditions: for turbidity (OD value) at 660 nm: oligosaccharide 5.0 g/L, 37° C., anaerobic
# Protocol: Liquid media of the following composition was prepared sterile. 1-Kestose (purity of 99% by mass, B Food Science Co., Ltd.), nystose (purity of 98% by mass, Wako Pure Chemical Industries, Ltd.), xylooligosaccharide (purity of 99% by mass, B Food Science Co., Ltd.), raffinose (purity of 98% by mass, Meiji Food Materia Co., Ltd.) and lactosucrose (purity of 89% by mass, Ensuiko Sugar Refining Co., Ltd.) were used as oligosaccharides. Moreover, a liquid medium of the following composition with no oligosaccharide was also prepared as a control.
# [Composition of Liquid Medium/Per L] (Final pH: 7.0)
# Casein digest 15.0 g, yeast extract 5.0 g, L-cystine 0.5 g, sodium chloride 2.5 g, thioglycolic acid 0.5 g, tryptophan 25 mg, hemin proper quantity, vitamin K1 proper quantity, oligosaccharide 5.0 g.
# A prepared liquid medium was inoculated with Faecalibacterium prausnitzii strain ATCC27768 precultured until confluent to a turbidity with an OD (Optical Density) value at 660 nm of 0.05 to 0.06. The inoculated culture was cultured statically at 37° C. in anaerobic environment and the turbidity (OD value) at 660 nm was measured with a spectrophotometer 24 hours, 48 hours, and 72 hours later. Moreover, the relation between OD value and the duration of culture is illustrated in a line graph of FIG. 1. Moreover, OD values at a duration of time of 72 hours are illustrated in a bar graph of FIG. 2.
SMILES,mean number of cells of Faecalibacterium (log10) (Faecalibacterium; 0 week),mean number of cells of Faecalibacterium per g feces (Faecalibacterium; 0 week),change of cell number from 0 weeks (in words) (Faecalibacterium; 6 weeks),Significant difference (vs 0 week) (Faecalibacterium; 6 weeks),mean number of cells of Faecalibacterium (log10) (Faecalibacterium; 6 weeks),mean number of cells of Faecalibacterium per g feces (Faecalibacterium; 6 weeks),cell number of Faecalibacterium over study period (in words) (Faecalibacterium),change of cell number from 0 weeks (in words) (Faecalibacterium; 12 weeks),Significant difference (vs 0 week) (Faecalibacterium; 12 weeks),mean number of cells of Faecalibacterium (log10) (Faecalibacterium; 12 weeks),mean number of cells of Faecalibacterium per g feces (Faecalibacterium; 12 weeks),increase of cell number from 0 weeks (Faecalibacterium; 6 weeks),increase of cell number from 0 weeks (Faecalibacterium; 12 weeks),"OD values versus control and other oligosaccharides (in words) ([1]; 24 hours, 48 hours and 72 hours)",turbidity (OD value) at 660 nm ([1]; duration of culture 0 hour),turbidity (OD value) at 660 nm ([1]; duration of culture 24 hours),turbidity (OD value) at 660 nm ([1]; duration of culture 48 hours),turbidity (OD value) at 660 nm ([1]; duration of culture 72 hours)
"OC[C@H]1O[C@H](O[C@H]2[C@H](O)[C@@H](O)C(O)O[C@@H]2CO)[C@H](O)[C@@H](O)[C@@H]1O (mixture of isomers) [Maltose, maltose]",6.88 cells log10/g feces,7.6 × 10^6 cells/g feces,slightly decreased,Not found,6.77 cells log10/g feces,5.8 × 10^6 cells/g feces,did not increase,slightly increased,Not found,7.12 cells log10/g feces,1.3 × 10^7 cells/g feces,,,,,,,
OC[C@H]1O[C@@](CO)(OC[C@@]2(O[C@H]3O[C@H](CO)[C@@H](O)[C@H](O)[C@H]3O)O[C@H](CO)[C@@H](O)[C@@H]2O)[C@@H](O)[C@@H]1O [1-kestose],6.57 cells log10/g feces,3.7 × 10^6 cells/g feces,,Not found,7.16 cells log10/g feces,1.4 × 10^7 cells/g feces,increased markedly,,Found,7.54 cells log10/g feces,3.5 × 10^7 cells/g feces,≥ 3.5 times,≥ 9 times,markedly greater,0.063,0.345,0.885,1.803
"OC[C@H]1O[C@@H](O[C@H]2[C@H](O)[C@@H](O)[C@@H](O[C@]3(CO)O[C@H](CO)[C@@H](O)[C@@H]3O)O[C@@H]2CO)[C@H](O)[C@@H](O)[C@H]1O [Lactosucrose, lactosucrose]",,,,,,,,,,,,,,,0.055,0.298,0.448,0.295
"OC[C@H]1O[C@@](CO)(OC[C@@]2(OC[C@@]3(O[C@H]4O[C@H](CO)[C@@H](O)[C@H](O)[C@H]4O)O[C@H](CO)[C@@H](O)[C@@H]3O)O[C@H](CO)[C@@H](O)[C@@H]2O)[C@@H](O)[C@@H]1O [Nystose, nystose]",,,,,,,,,,,,,,,0.063,0.290,0.443,0.305
"OC[C@H]1O[C@H](OC[C@H]2O[C@H](O[C@]3(CO)O[C@H](CO)[C@@H](O)[C@@H]3O)[C@H](O)[C@@H](O)[C@@H]2O)[C@H](O)[C@@H](O)[C@H]1O [Raffinose, raffinose]",,,,,,,,,,,,,,,0.052,0.251,0.191,0.246
